Test results published in publication PMC12281424, “A Rac-specific competitive inhibitor of guanine nucleotide binding reduces metastasis in triple-negative breast cancer” (Cell Reports Medicine, 2025).
Entries after “also recorded” stand apart in the source; their conditions may differ.

Experiments:
[1] = test system: CT26 cells; experiment: Colorectal tumor model (hepatic metastasis); assay type: in vivo, mouse; settings: 25 mg/kg/day i.p., 2 weeks after s.c. implantation
Description: Figure 7 A41 decreases metastasis of colorectal cancer cells in vivo (A–C) Therapeutic effect of A41 on the pulmonary metastasis formation of colorectal circulating tumoral cells (CT26 cells). In control, A41-, and cisplatin-treated mice, metastasis surface (A), survival (B), and body weight (C) were quantified (N = 10 mice; ∗p < 0.05 vs. controls). (D) Therapeutic effect of A41 on colorectal tumor-dependent hepatic metastasis formation (N = 5–8 mice; ∗p < 0.05, ∗∗p < 0.01, and ∗∗∗p < 0.001 vs. controls).
8 weeks-old BALB/c female mice were obtained from the School of Veterinary Sciences at the National University of La Plata and treated in accordance with the Canadian Council on Animal Care and ARRIVE guidelines. 1x10^6 CT26 viable cells were resuspended in PBS (100 μL) and injected subcutaneously into the right flank of each animal. Mice were distributed and treated as follows: control, consist in a daily intraperitoneal (ip) administration of vehicle (5% DMSO, 45% PEG400); A41, ip administration of 25 mg/kg BW/day; 5-FU, ip administration 20 mg/kgBW/week in sterile water; A41+5-FU, ip administration of A41 and 5-FU treatments. Liver metastases were identified and quantified under a stereoscopic magnifying glass. These lesions were distinguished by their isolated circular shape, their marked whitish color contrasting with the reddish liver tissue, and their raised appearance.

[2] = target: Adrenergic β2 (Homo sapiens, UniProt P07550); experiment: Safety screen; assay type: binding
Adrenergic β2, sequence (P07550 whole entry): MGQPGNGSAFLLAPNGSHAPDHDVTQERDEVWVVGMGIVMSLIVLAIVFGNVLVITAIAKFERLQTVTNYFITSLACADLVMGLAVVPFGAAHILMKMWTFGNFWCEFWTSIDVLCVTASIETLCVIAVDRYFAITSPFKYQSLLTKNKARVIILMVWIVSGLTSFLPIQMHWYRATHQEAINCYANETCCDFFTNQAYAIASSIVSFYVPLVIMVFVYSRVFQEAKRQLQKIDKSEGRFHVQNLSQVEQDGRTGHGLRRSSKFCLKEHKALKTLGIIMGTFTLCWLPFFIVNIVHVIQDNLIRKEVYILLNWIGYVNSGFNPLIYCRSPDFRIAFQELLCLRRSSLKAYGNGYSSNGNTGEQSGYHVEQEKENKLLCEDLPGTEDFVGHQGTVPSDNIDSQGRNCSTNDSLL
Procedure: (§2) Blood cell counts, kinase profiler, safety screen, bacterial cytotoxicity, Ames, micronucleus assays were performed by the company Eurofins (France). The kinase profiler was performed by the company Eurofins (Discovery, Panlab and Cerep).

[3] = target: Melanocortin MC4 (Homo sapiens, UniProt P32245); experiment: Safety screen; assay type: binding
Melanocortin MC4, sequence (P32245 whole entry): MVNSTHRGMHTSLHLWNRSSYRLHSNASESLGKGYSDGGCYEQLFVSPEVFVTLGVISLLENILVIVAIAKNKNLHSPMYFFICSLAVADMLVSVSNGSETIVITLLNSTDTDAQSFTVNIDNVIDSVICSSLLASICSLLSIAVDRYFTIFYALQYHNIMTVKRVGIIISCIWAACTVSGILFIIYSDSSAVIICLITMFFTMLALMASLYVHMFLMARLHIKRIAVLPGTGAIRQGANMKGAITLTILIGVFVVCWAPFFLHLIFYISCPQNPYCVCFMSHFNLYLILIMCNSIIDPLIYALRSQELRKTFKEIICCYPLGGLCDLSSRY
Procedure: Blood cell counts, kinase profiler, safety screen, bacterial cytotoxicity, Ames, micronucleus assays were performed by the company Eurofins (France).

[4] = target: BTK(h) (Homo sapiens, UniProt Q06187); experiment: Kinase Profiler; assay type: biochemical
BTK(h), sequence (Q06187 whole entry): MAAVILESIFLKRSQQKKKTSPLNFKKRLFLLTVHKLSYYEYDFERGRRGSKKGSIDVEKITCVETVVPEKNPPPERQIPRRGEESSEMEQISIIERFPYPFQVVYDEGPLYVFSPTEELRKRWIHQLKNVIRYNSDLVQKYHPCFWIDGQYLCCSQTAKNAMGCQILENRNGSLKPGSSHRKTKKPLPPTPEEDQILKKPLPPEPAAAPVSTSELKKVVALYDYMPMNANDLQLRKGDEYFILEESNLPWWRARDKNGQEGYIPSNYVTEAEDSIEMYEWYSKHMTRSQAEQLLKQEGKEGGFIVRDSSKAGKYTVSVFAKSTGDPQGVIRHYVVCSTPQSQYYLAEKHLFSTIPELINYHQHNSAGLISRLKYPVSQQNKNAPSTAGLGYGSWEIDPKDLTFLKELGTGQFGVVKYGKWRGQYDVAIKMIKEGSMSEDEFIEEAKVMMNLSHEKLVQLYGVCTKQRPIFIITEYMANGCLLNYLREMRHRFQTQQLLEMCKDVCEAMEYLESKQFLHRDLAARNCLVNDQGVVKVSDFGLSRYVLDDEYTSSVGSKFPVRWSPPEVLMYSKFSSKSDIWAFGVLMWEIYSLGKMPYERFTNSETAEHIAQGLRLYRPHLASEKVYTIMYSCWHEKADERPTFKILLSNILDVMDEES
Procedure: as §2

[5] = target: DCAMKL3(h) (Homo sapiens, UniProt Q9C098); experiment: Kinase Profiler; assay type: biochemical
Procedure: as §2

[6] = target: EphB4(h) (Homo sapiens, UniProt P54760); experiment: Kinase Profiler; assay type: biochemical
Procedure: as §2

[7] = target: FAK(h) (Homo sapiens, UniProt Q05397); experiment: Kinase Profiler; assay type: biochemical
Procedure: (§3) The kinase profiler was performed by the company Eurofins (Discovery, Panlab and Cerep).

[8] = target: FGFR2(h) (Homo sapiens, UniProt P21802); experiment: Kinase Profiler; assay type: biochemical
Procedure: as §3

[9] = target: FGFR4(h) (Homo sapiens, UniProt P22455); experiment: Kinase Profiler; assay type: biochemical
FGFR4(h), sequence (P22455 22-802): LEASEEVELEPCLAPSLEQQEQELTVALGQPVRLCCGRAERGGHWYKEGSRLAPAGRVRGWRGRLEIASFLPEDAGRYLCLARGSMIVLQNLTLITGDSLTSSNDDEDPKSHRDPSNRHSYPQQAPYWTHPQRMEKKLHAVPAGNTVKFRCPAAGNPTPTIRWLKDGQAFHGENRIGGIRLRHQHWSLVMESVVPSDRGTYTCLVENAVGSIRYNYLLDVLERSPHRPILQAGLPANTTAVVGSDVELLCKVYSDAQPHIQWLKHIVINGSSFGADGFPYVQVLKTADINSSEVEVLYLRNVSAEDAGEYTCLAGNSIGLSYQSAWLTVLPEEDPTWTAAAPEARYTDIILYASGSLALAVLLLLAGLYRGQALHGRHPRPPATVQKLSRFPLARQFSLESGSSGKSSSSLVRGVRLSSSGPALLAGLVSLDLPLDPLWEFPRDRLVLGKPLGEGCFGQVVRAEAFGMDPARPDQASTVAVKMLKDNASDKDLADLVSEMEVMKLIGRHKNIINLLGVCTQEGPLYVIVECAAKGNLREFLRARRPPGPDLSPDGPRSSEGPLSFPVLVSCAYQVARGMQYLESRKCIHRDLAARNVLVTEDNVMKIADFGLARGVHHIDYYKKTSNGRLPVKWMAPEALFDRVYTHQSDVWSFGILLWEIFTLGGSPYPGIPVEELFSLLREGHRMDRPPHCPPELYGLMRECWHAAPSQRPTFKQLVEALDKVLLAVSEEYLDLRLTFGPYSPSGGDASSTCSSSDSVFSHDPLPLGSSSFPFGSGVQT
Procedure: as §3

[10] = target: GSK3α(h) (Homo sapiens, UniProt P49840); experiment: Kinase Profiler; assay type: biochemical
Procedure: as §2

[11] = target: Itk(h) (Homo sapiens, UniProt Q08881); experiment: Kinase Profiler; assay type: biochemical
Procedure: as §3

[12] = target: LRRK2(h) (Homo sapiens, UniProt Q5S007); experiment: Kinase Profiler; assay type: biochemical
Procedure: as §3

[13] = target: LTK(h) (Homo sapiens, UniProt P29376); experiment: Kinase Profiler; assay type: biochemical
LTK(h), sequence (P29376 17-864): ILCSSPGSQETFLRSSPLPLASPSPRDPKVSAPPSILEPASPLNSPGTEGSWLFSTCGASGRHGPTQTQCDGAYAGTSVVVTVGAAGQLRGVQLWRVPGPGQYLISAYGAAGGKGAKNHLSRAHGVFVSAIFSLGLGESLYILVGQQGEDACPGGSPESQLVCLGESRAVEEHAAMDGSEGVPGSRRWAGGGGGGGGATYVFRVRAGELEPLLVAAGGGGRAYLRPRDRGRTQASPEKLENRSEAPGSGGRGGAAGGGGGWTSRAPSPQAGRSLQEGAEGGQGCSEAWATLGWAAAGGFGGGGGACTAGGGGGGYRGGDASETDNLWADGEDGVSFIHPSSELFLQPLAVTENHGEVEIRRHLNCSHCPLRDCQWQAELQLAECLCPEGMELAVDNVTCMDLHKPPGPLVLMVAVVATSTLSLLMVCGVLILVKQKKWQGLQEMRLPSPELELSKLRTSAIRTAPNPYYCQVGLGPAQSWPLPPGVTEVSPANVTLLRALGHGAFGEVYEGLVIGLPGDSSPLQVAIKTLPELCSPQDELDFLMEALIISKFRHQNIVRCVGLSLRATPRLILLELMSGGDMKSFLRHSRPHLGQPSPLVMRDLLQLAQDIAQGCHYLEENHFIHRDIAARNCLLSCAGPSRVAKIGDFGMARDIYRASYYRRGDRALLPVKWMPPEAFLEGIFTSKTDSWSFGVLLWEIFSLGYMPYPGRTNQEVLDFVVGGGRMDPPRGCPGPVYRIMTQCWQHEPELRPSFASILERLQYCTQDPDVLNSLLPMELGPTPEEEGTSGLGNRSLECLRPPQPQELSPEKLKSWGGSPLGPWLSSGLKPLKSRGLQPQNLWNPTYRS
Procedure: as §3

[14] = target: MAP4K3(h) (Homo sapiens, UniProt Q8IVH8); experiment: Kinase Profiler; assay type: biochemical
MAP4K3(h), sequence (Q8IVH8 whole entry): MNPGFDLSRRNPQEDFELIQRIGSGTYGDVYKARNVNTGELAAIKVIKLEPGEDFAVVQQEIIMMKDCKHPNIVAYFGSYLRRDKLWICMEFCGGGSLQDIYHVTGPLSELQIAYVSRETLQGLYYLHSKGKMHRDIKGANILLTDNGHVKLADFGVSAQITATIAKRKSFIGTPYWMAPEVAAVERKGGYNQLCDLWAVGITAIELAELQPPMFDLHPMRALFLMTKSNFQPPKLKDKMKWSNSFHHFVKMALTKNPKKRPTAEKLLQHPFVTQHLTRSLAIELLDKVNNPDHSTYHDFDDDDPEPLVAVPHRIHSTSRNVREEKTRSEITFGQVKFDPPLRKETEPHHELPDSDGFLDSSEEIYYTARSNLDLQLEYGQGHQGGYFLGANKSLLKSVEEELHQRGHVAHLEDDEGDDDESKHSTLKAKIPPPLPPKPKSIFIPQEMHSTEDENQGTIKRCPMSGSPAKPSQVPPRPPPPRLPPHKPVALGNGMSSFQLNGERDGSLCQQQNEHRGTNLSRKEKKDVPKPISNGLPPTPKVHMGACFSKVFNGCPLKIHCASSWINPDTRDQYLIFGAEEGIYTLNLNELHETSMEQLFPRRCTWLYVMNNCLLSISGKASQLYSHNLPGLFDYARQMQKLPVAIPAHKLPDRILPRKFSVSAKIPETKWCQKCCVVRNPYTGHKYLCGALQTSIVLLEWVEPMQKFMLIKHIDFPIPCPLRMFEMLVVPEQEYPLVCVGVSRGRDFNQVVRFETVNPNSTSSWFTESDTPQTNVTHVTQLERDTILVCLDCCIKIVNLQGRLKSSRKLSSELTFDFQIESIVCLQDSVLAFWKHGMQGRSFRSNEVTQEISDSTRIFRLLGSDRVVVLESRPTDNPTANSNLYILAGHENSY
Procedure: as §3

[15] = target: MAPKAP-K2(h) (Homo sapiens, UniProt P49137); experiment: Kinase Profiler; assay type: biochemical
Procedure: as §3

[16] = target: MLK2(h) (Homo sapiens, UniProt Q02779); experiment: Kinase Profiler; assay type: biochemical
Procedure: as §2

[17] = target: NEK3(h) (Homo sapiens, UniProt P51956); experiment: Kinase Profiler; assay type: biochemical
Procedure: as §3

[18] = target: PAK4(h) (Homo sapiens, UniProt O96013); experiment: Kinase Profiler; assay type: biochemical
Procedure: as §2

[19] = target: PAK6(h) (Homo sapiens, UniProt Q9NQU5); experiment: Kinase Profiler; assay type: biochemical
Procedure: as §3

[20] = target: PDGFRβ(h) (Homo sapiens, UniProt P09619); experiment: Kinase Profiler; assay type: biochemical
Procedure: as §3

[21] = target: Plk3(h) (Homo sapiens, UniProt Q9H4B4); experiment: Kinase Profiler; assay type: biochemical
Procedure: as §2

[22] = target: Ret (V804L)(h) (Homo sapiens, UniProt P07949, V804L); experiment: Kinase Profiler; assay type: biochemical
Procedure: as §3

[23] = target: TrkC(h) (Homo sapiens, UniProt Q16288); experiment: Kinase Profiler; assay type: biochemical
Procedure: as §3

[24] = target: TSSK4(h) (Homo sapiens, UniProt Q6SA08); experiment: Kinase Profiler; assay type: biochemical
TSSK4(h), sequence (Q6SA08 whole entry): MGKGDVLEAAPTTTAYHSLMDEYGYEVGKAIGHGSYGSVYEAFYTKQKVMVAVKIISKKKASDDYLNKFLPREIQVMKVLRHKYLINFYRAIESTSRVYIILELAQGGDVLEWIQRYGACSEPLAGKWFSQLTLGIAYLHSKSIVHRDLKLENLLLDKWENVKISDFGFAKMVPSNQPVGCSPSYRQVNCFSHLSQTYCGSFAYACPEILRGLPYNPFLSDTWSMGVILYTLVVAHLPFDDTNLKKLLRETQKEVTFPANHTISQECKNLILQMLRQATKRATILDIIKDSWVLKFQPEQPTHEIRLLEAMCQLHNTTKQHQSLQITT
Procedure: as §3

[25] = target: Wee1B(h) (Homo sapiens, UniProt P0C1S8); experiment: Kinase Profiler; assay type: biochemical
Wee1B(h), sequence (P0C1S8 whole entry): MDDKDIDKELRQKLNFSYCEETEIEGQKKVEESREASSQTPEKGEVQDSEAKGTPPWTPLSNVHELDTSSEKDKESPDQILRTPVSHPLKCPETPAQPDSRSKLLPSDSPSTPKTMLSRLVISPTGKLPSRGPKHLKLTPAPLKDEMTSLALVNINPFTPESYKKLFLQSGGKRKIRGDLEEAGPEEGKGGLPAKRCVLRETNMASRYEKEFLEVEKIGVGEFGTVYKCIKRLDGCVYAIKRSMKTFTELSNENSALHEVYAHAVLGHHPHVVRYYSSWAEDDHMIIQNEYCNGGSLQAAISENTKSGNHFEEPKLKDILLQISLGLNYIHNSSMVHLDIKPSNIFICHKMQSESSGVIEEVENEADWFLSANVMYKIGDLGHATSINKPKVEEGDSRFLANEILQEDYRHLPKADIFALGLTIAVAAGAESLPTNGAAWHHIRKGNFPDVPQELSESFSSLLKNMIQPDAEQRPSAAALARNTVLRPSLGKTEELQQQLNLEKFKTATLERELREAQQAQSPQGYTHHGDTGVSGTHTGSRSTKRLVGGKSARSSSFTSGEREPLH
Procedure: as §3

[26] = target: Cholinesterase, Acetyl, ACES (Homo sapiens, UniProt P22303)
Procedure: as §2

[27] = target: RHOA (Homo sapiens, UniProt P61586); experiment: Surface plasmon resonance; assay type: binding; parameters: purchased Cytoskeleton RC01; settings: A41 0 to 25 μM
RHOA, sequence (P61586 whole entry): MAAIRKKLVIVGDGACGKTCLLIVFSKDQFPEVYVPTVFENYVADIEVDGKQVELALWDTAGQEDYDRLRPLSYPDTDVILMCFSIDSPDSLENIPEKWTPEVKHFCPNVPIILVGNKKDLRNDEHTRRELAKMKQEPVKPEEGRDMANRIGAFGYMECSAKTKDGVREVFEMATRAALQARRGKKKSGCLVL
Procedure: (§1) SPR immobilization was performed at 25°C. RAC1, RHOA and CDC42 purified proteins (respectively […] and CD01, Cytoskeleton) were diluted to 5 μg/mL in Na^+ acetate buffer (pH 5.0) and injected into sensor chip CM5 (GE Healthcare) in a Biacore T200 (GE Healthcare) that was activated with NHS/EDC buffer. Approximately 5,000 response units of the purified protein were immobilized on the biosensor chip. Biosensor chips were blocked by an injection of 1 mM ethanolamine (pH 8.5). SPR analysis was performed at 25°C in HBSEP running buffer (5% DMSO) with or without EDTA (20 mM). A41 compound was injected over the RAC1, RHOA or CDC42 functionalized surface in concentration range from 0 to 25μM. Association and dissociation phases were monitored during 60s and 300s, respectively.

[28] = target: RAC1 (Homo sapiens, UniProt P63000); experiment: Surface plasmon resonance; assay type: binding; parameters: purchased Cytoskeleton RH01
Procedure: as §1

Compound: COc1ccc(OC)c(NS(=O)(=O)c2ccc(NC(=O)CCSc3ccc(C)cc3)cc2)c1 [Compound A41]
- number of liver metastases [1]: significantly reduced the number of metastases; also recorded: more effective than 5-fluorouracil (5FU)
- % inh. [2]: 5%
- % inh. [3]: 8%
- Activity(%) [4]: 117%
- Activity(%) [5]: 104%
- Activity(%) [6]: 112%
- Activity(%) [7]: 111%
- Activity(%) [8]: 89%
- Activity(%) [9]: 116%
- Activity(%) [10]: 90%
- Activity(%) [11]: 78%
- Activity(%) [12]: 111%
- Activity(%) [13]: 113%
- Activity(%) [14]: 98%
- Activity(%) [15]: 111%
- Activity(%) [16]: 109%
- Activity(%) [17]: 107%
- Activity(%) [18]: 106%
- Activity(%) [19]: 99%
- Activity(%) [20]: 82%
- Activity(%) [21]: 115%
- Activity(%) [22]: 93%
- Activity(%) [23]: 104%
- Activity(%) [24]: 103%
- Activity(%) [25]: 89%
- % inh. [26]: 64%
- binding [27]: No binding was measured
- binding to RAC1 ([28]; in the presence of 20 mM EDTA): strongly increased
- Kd ([28]; purified RAC1-GDP, without EDTA): 30 nM
